Reference: US9656963B2 (BRISTOL-MYERS SQUIBB COMPANY, priority 2012, dated 2017)

These compounds were tested against T1, hGPR40 (Homo sapiens, UniProt O14842) (assay: FDSS-Based Intracellular Calcium Assay). Conditions: cells expressing GPR40, intracellular Ca2+ response.
T1 construct: 3x FLAG; expressed in transfected cells
T1 sequence (O14842 whole entry): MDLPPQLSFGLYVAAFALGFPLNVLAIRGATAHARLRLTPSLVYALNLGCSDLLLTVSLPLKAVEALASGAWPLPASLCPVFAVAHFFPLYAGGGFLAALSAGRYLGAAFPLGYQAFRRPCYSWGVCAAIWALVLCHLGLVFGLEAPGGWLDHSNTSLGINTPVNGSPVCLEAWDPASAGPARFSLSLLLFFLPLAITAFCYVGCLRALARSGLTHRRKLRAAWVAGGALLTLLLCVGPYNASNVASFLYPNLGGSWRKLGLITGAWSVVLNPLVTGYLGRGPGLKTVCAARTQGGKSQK
Assay type: cell-based
Protocol: FDSS-Based Intracellular Calcium Assay
Cell lines expressing GPR40 are generated using the pDEST 3× flag gene expression system and are cultured in culture medium comprising the following components: F12 (Gibco #11765), 10% lipid deprived fetal bovine serum, 250 μg/ml zeocin and 500 μg/ml G418. To conduct the fluorescent imaging plate reader (FLIPR)-based calcium flux assay to measure intracellular Ca^2+ response, cells expressing GPR40 are plated on 384 well plates (BD Biocoat #356697) at a density of 20,000 cells/20 μL medium per well in phenol red and serum-free DMEM (Gibco #21063-029) and incubated overnight. […] Compounds are dissolved in DMSO and diluted to desired concentrations with assay buffer and added to the cells as 3x solution (20 μL per well). Run fluorescence/luminescence reader FDSS (Hamamatsu) to read intracellular Ca^2+ response.
`COc1ccc(F)c(-c2ccc(Oc3ccc(N4N=C(C(F)(F)F)CC4CC(=O)O)cc3)c(C)c2)c1` (single isomer, unassigned) [Example 14, Isomer 2, 2-(1-(4-(2′-fluoro-5′-methoxy-3-methylbiphenyl-4-yloxy)phenyl)-3-(trifluoromethyl)-4,5-dihydro-1H-pyrazol-5-yl)acetic acid] gave an EC50 of 160 nM. For `COc1ccc(F)c(-c2cc(C)c(Cc3ccc(N4N=C(C(F)(F)F)CC4CC(=O)O)cc3)c(F)c2)c1` (single isomer, unassigned) [Example 21, Isomer 2, 2-(1-(4-((2′,3-difluoro-5′-methoxy-5-methylbiphenyl-4-yl)methyl)phenyl)-3-(trifluoromethyl)-4,5-dihydro-1H-pyrazol-5-yl)acetic acid], the EC50 was 270 nM. For `COc1ccc(F)c(-c2ccc(Cc3ccc(N4N=C(C(F)(F)F)C(CO)C4CC(=O)O)cc3)c(C)c2)c1` (single isomer, unassigned) [Example 53, Isomer 2, 2-(1-(4-((2′-fluoro-5′-methoxy-3-methyl-[1,1′-biphenyl]-4-yl)methyl)phenyl)-4-(hydroxymethyl)-3-(trifluoromethyl)-4,5-dihydro-1H-pyrazol-5-yl)acetic acid, trans-diastereomer], the EC50 was 1100 nM. Work on `N#CC1=NN(c2ccc(OCc3ccc(Cl)cc3Cl)cc2)C(CC(=O)O)C1` (racemic) [Example 33, 2-(3-cyano-1-(4-(2,4-dichlorobenzyloxy)phenyl)-4,5-dihydro-1H-pyrazol-5-yl)acetic acid] yielded an EC50 of 300 nM. Compound `COc1ccc(F)c(-c2ccc(Cc3ccc(N4N=C(c5ccn(C)n5)C(C)C4CC(=O)O)cc3)c(C)c2)c1` (single isomer, unassigned) [Example 55, Isomer 1, 2-((1-(4-((2′-fluoro-5′-methoxy-3-methyl-[1,1′-biphenyl]-4-yl)methyl)phenyl)-1′,4-dimethyl-4,5-dihydro-1H,1′H-[3,3′-bipyrazol]-5-yl)acetic acid, trans-diastereomer] has an EC50 of 5630 nM. Compound `Cc1ccccc1Oc1ccc(N2N=C(C(F)(F)F)CC2CC(=O)O)cc1` (single isomer, unassigned) [Example 11, Isomer 1, 2-(1-(4-(o-tolyloxy)phenyl)-3-(trifluoromethyl)-4,5-dihydro-1H-pyrazol-5-yl)acetic acid] has an EC50 of 70 nM. With `COc1cc(-c2ccc(Cc3ccc(N4N=C(C(F)(F)F)[C@@H](C)[C@@H]4CC(=O)O)cc3)c(C)c2)ccn1` [Example 75, 2-((4S,5S)-1-(4-(4-(2-methoxypyridin-4-yl)-2-methylbenzyl)phenyl)-4-methyl-3-(trifluoromethyl)-4,5-dihydro-1H-pyrazol-5-yl)acetic acid] the EC50 was 430 nM. `CC(C)c1ccccc1Oc1ccc(N2N=C(C#N)CC2CC(=O)O)cc1` (racemic) [Example 29, 2-(3-cyano-1-(4-(2-isopropylphenoxy)phenyl)-4,5-dihydro-1H-pyrazol-5-yl)acetic acid] gave an EC50 of 430 nM. Work on `CCC1C(C(F)(F)F)=NN(c2ccc(Cc3ccc(-c4cc(OC)ccc4F)cc3C)cc2)C1CC(=O)O` (single isomer, unassigned) [Example 44, Isomer 1, 2-(4-ethyl-1-(4-((2′-fluoro-5′-methoxy-3-methylbiphenyl-4-yl)methyl)phenyl)-3-(trifluoromethyl)-4,5-dihydro-1H-pyrazol-5-yl)acetic acid] yielded an EC50 of 1310 nM. `COc1cccc(-c2cc(C)c(Oc3ccc(N4N=C(C#N)CC4CC(=O)O)cc3)cc2C)c1` (racemic) [Example 36, 2-(3-cyano-1-(4-(3′-methoxy-2,5-dimethylbiphenyl-4-yloxy)phenyl)-4,5-dihydro-1H-pyrazol-5-yl)acetic acid] gave an EC50 of 590 nM. Work on `COc1cc(-c2ccc(Oc3ccc(N4N=C(C(F)(F)F)CC4CC(=O)O)cc3)c(C)c2)c(F)cn1` (single isomer, unassigned) [Example 15, Isomer 1, 2-(1-(4-(4-(5-fluoro-2-methoxypyridin-4-yl)-2-methylphenoxy)phenyl)-3-(trifluoromethyl)-4,5-dihydro-1H-pyrazol-5-yl)acetic acid] yielded an EC50 of 270 nM. `N#CC1=NN(c2ccc(Oc3ccccc3Br)cc2)C(CC(=O)O)C1` (racemic) [Example 30, 2-(1-(4-(2-bromophenoxy)phenyl)-3-cyano-4,5-dihydro-1H-pyrazol-5-yl)acetic acid] showed an EC50 of 180 nM. Work on `COc1ccc(F)c(-c2ccc(Oc3ccc(N4N=C(c5ncco5)CC4CC(=O)O)cc3)c(C)c2)c1` (single isomer, unassigned) [Example 8, Isomer 2, 2-(1-(4-(2′-fluoro-5′-methoxy-3-methylbiphenyl-4-yloxy)phenyl)-3-(oxazol-2-yl)-4,5-dihydro-1H-pyrazol-5-yl)acetic acid] yielded an EC50 of 1160 nM. `COc1ccc(F)c(-c2ccc(Cc3ccc(N4N=C(C(F)(F)F)C[C@@H]4CC(=O)O)cc3)c(Cl)c2)c1` (single isomer, unassigned) [Example 20, Isomer 2] showed an EC50 of 50 nM. Work on `COc1ccc(F)c(-c2ccc(Cc3ccc(N4N=C(C(F)(F)F)CC4CC(=O)O)cc3)c(C)c2)c1` (single isomer, unassigned) [Example 17, Isomer 2, 2-(1-(4-((2′-fluoro-5′-methoxy-3-methylbiphenyl-4-yl)methyl)phenyl)-3-(trifluoromethyl)-4,5-dihydro-1H-pyrazol-5-yl)acetic acid] yielded an EC50 of 90 nM. In the case of `COc1ccc(F)c(-c2ccc(Cc3ccc(N4N=C(C(F)(F)F)C(C5CC5)C4CC(=O)O)cc3)c(C)c2)c1` (single isomer, unassigned) [Example 43, Isomer 1, 2-(4-cyclopropyl-1-(4-((2′-fluoro-5′-methoxy-3-methylbiphenyl-4-yl)methyl)phenyl)-3-(trifluoromethyl)-4,5-dihydro-1H-pyrazol-5-yl)acetic acid], the EC50 is reported as 3280 nM. In the case of `COc1cccc(-c2ccc(Cc3ccc(N4N=C(C(F)(F)F)CC4CC(=O)O)cc3)c(C)c2)c1` (single isomer, unassigned) [Example 26, Isomer 1, 2-(1-(4-((3′-methoxy-3-methylbiphenyl-4-yl)methyl)phenyl)-3-(trifluoromethyl)-4,5-dihydro-1H-pyrazol-5-yl)acetic acid], the EC50 is reported as 330 nM. `COc1ccc(F)c(-c2ccc(Cc3ccc(N4N=C(c5cccc(Cl)c5)[C@@H](C)[C@@H]4CC(=O)O)cc3)c(C)c2)c1` (single isomer, unassigned) [Example 68, isomer 1] was tested, and the EC50 was 15 nM. Compound `COc1ccc(F)c(-c2ccc(Cc3ccc(N4N=C(c5ccccn5)C(C)C4CC(=O)O)cc3)c(C)c2)c1` (single isomer, unassigned) [example 62, isomer 2, 2-(1-(4-((2′-fluoro-5′-methoxy-3-methylbiphenyl-4-yl)methyl)phenyl)-4-methyl-3-(pyridin-2-yl)-4,5-dihydro-1H-pyrazol-5-yl)acetic acid] has an EC50 of 63 nM. Work on `COc1cc(-c2ccc(Cc3ccc(N4N=C(C(F)(F)F)CC4CC(=O)O)cc3)c(C)c2)c(F)cn1` (single isomer, unassigned) [Example 27, Isomer 1, 2-(1-(4-(4-(5-fluoro-2-methoxypyridin-4-yl)-2-methylbenzyl)phenyl)-3-(trifluoromethyl)-4,5-dihydro-1H-pyrazol-5-yl)acetic acid] yielded an EC50 of 360 nM. For `COc1ccc(F)c(-c2cc(C)c(Cc3ccc(N4N=C(C(F)(F)F)CC4CC(=O)O)cc3)c(F)c2)c1` (single isomer, unassigned) [Example 21, Isomer 1, 2-(1-(4-((2′,3-difluoro-5′-methoxy-5-methylbiphenyl-4-yl)methyl)phenyl)-3-(trifluoromethyl)-4,5-dihydro-1H-pyrazol-5-yl)acetic acid], the EC50 was 500 nM. Work on `COc1ccc(F)c(-c2ccc(Cc3ccc(N4N=C(C(F)(F)F)CC4CC(=O)O)cc3)c(C)c2)c1` (single isomer, unassigned) [Example 17, Isomer 1, 2-(1-(4-((2′-fluoro-5′-methoxy-3-methylbiphenyl-4-yl)methyl)phenyl)-3-(trifluoromethyl)-4,5-dihydro-1H-pyrazol-5-yl)acetic acid] yielded an EC50 of 150 nM. `Cc1ccccc1Oc1ccc(N2N=C(C(=O)N(C)C)CC2CC(=O)O)cc1` (racemic) [Example 6, 2-(3-(dimethylcarbamoyl)-1-(4-(o-tolyloxy)phenyl)-4,5-dihydro-1H-pyrazol-5-yl)acetic acid] was tested, and the EC50 was 1810 nM. Compound `N#CC1=NN(c2ccc(Oc3cccc(Cl)c3)cc2)C(CC(=O)O)C1` (racemic) [Example 4, 2-(1-(4-(3-chlorophenoxy)phenyl)-3-cyano-4,5-dihydro-1H-pyrazol-5-yl)acetic acid] has an EC50 of 220 nM. Work on `COc1ccc(F)c(-c2ccc(Cc3ccc(N4N=C(C(F)(F)F)C(C)(C)C4CC(=O)O)cc3)c(C)c2)c1` (single isomer, unassigned) [Example 50, Isomer 1, 2-(1-(4-((2′-fluoro-5′-methoxy-3-methylbiphenyl-4-yl)methyl)phenyl)-4,4-dimethyl-3-(trifluoromethyl)-4,5-dihydro-1H-pyrazol-5-yl)acetic acid] yielded an EC50 of 220 nM. Work on `Cc1ccccc1Oc1ccc(N2N=C(S(C)(=O)=O)CC2CC(=O)O)cc1` (racemic) [Example 5, 2-(3-(methylsulfonyl)-1-(4-(o-tolyloxy)phenyl)-4,5-dihydro-1H-pyrazol-5-yl)acetic acid] yielded an EC50 of 1650 nM. `Cc1cc(Br)ccc1Oc1ccc(N2N=C(C(F)(F)F)CC2CC(=O)O)cc1` (racemic) [Example 13, 2-(1-(4-(4-bromo-2-methylphenoxy)phenyl)-3-(trifluoromethyl)-4,5-dihydro-1H-pyrazol-5-yl)acetic acid] showed an EC50 of 160 nM.
